Experimental data reported in patent US12359238B2 (priority 2017, dated 2025).

Tested on: all wired variants (GDH-S247PDAz, FGM-S247PDAz, FGM-T558PDAz, FGM-S247PCA)
Settings: read-out: KM^app of all samples (electrochemical); glucose; range over all wired variants; 300 mV vs. Ag/AgCl

SMILES: OC[C@H]1OC(O)[C@H](O)[C@@H](O)[C@@H]1O (stereo partly shown) [glucose]
- Km: 1.55 to 1.89 mM
